Molecules are shown by their SMILES.

A short description of the data set: In vitro dissolution test, microcentrifuge method, in model fasted duodenal solution (MFDS). The conditions noted are these: summary Table 48. It counts as physicochemical. On the procedure:
The compositions comprising the CETP inhibitor and concentration-enhancing polymer provide enhanced concentration of the dissolved CETP inhibitor in in vitro dissolution tests. It has been determined that enhanced drug concentration in in vitro dissolution tests in Model Fasted Duodenal (MFD) solution or Phosphate Buffered Saline (PBS) is a good indicator of in vivo performance and bioavailability. An appropriate PBS solution is an aqueous solution comprising 20 mM sodium phosphate (Na2HPO4), 47 mM potassium phosphate (KH2PO4), 87 mM NaCl, and 0.2 mM KCl, adjusted to pH 6.5 with NaOH. An appropriate MFD solution is the same PBS solution wherein additionally is present 7.3 mM sodium taurocholic acid and 1.4 mM of 1-palmitoyl-2-oleyl-sn-glycero-3-phosphocholine. In particular, a composition of the present invention can be dissolution-tested by adding it to MFD or PBS solution and agitating to promote dissolution.
A typical in vitro test to evaluate enhanced drug concentration in aqueous solution can be conducted by (1) adding with agitation a sufficient quantity of control composition, typically the CETP inhibitor alone, to the in vitro test medium, typically MFD or PBS solution, to achieve equilibrium concentration of the CETP inhibitor; (2) adding with agitation a sufficient quantity of test composition (e.g., the CETP inhibitor and polymer) in an equivalent test medium, such that if all the CETP inhibitor dissolved, the theoretical concentration of CETP inhibitor would exceed the equilibrium concentration of the CETP inhibitor by a factor of at least 10, and preferably a factor of at least 100; and (3) comparing the measured MDC and/or aqueous concentration versus time AUC of the test composition in the test medium with the equilibrium concentration, and/or the aqueous concentration versus time AUC of the control composition. In conducting such a dissolution test, the amount of test composition or control composition used is an amount such that if all of the CETP inhibitor dissolved the CETP inhibitor concentration would be at least 10-fold and preferably at least 100-fold that of the equilibrium concentration. Indeed, for some extremely insoluble CETP inhibitors, in order to identify the MDC achieved it may be necessary to use an amount of test composition such that if all of the CETP inhibitor dissolved, the CETP inhibitor concentration would be 10,000-fold or even more, that of the equilibrium concentration of the CETP inhibitor.
The concentration of dissolved CETP inhibitor is typically measured as a function of time by sampling the test medium and plotting CETP inhibitor concentration in the test medium vs. time so that the MDC can be ascertained. The MDC is taken to be the maximum value of dissolved CETP inhibitor measured over the duration of the test.
To avoid large CETP inhibitor particulates which would give an erroneous determination, the test solution is either filtered or centrifuged. “Dissolved CETP inhibitor” is typically taken as that material that either passes a 0.45 μm syringe filter or, alternatively, the material that remains in the supernatant following centrifugation. Filtration can be conducted using a 13 mm, 0.45 μm polyvinylidine difluoride syringe filter sold by Scientific Resources under the trademark TITAN®. Centrifugation is typically carried out in a polypropylene microcentrifuge tube by centrifuging at 13,000 G for 60 seconds. Other similar filtration or centrifugation methods can be employed and useful results obtained. For example, using other types of microfilters may yield values somewhat higher or lower (±10-40%) than that obtained with the filter specified above but will still allow identification of preferred dispersions. […]

Consider `CCOC(=O)N1c2ccc(C(F)(F)F)cc2[C@@H](N(Cc2cc(C(F)(F)F)cc(C(F)(F)F)c2)C(=O)OC)C[C@H]1CC` [Control 2, [2R,4S]4-[(3,5-bis-trifluoromethyl-benzyl)-methoxycarbonyl-amino]-2-ethyl-6-trifluoromethyl-3,4-dihydro-2H-quinoline-1-carboxylic acid ethyl ester], for which the AUC90 (AUC through 90 min) is listed as <88 min-μg/ml. The “Cmax, 90” value (maximum Drug 2 concentration through 90 min) was <1000 ng/mL.

Values taken from US8389011B2, “Pharmaceutical compositions of cholesteryl ester transfer protein inhibitors” (Bend Research, Inc., priority 2000, dated 2013).
